{
  "source": "patent US11542240B2",
  "about": "“STK19 inhibitors for treatment of cancer” (TRUSTEES OF BOSTON UNIVERSITY, priority 2018, dated 2023)",
  "assay_in_all_cases": "biochemical",
  "assay_type_in_all_cases": "binding",
  "key": {"[1]": {"target": "panel of 468 diverse kinases (Homo sapiens, UniProt O00329)", "conditions": "PIK3CD; 1000 nM; read-out: Percent Control"}, "[2]": {"target": "panel of 468 diverse kinases (Homo sapiens, UniProt O00444)", "conditions": "PLK4; 1000 nM; read-out: Percent Control"}, "[3]": {"target": "panel of 468 diverse kinases (Homo sapiens, UniProt O75116)", "conditions": "ROCK2; 1000 nM; read-out: Percent Control"}, "[4]": {"target": "panel of 468 diverse kinases (Homo sapiens, UniProt O75460)", "conditions": "ERN1; 1000 nM; read-out: Percent Control"}, "[5]": {"target": "panel of 468 diverse kinases (Homo sapiens, UniProt O76039)", "conditions": "CDKL5; 1000 nM; read-out: Percent Control"}, "[6]": {"target": "panel of 468 diverse kinases (Homo sapiens, UniProt P00519, F317L)", "conditions": "1000 nM, read-out: Percent Control"}, "[7]": {"target": "panel of 468 diverse kinases (Homo sapiens, UniProt P00533)", "conditions": "EGFR; 1000 nM; read-out: Percent Control"}, "[8]": {"target": "panel of 468 diverse kinases (Homo sapiens, UniProt P06239)", "sequence (P06239 2-509 limits assumed)": "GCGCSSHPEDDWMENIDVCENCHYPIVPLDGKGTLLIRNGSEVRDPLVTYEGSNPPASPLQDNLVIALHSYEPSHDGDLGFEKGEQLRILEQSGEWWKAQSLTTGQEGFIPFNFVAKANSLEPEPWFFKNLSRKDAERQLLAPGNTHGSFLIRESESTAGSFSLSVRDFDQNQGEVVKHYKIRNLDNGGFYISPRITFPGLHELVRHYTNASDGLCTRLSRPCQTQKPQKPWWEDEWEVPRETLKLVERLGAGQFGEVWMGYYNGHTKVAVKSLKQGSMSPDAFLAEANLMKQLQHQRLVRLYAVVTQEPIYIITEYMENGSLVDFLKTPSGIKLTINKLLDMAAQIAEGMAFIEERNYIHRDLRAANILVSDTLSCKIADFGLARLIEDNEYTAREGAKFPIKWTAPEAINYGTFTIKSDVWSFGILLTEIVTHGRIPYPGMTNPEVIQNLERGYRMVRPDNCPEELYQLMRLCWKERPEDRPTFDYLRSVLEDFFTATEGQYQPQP", "conditions": "LCK; 1000 nM; read-out: Percent Control"}, "[9]": {"target": "panel of 468 diverse kinases (Homo sapiens, UniProt P07948)", "sequence (P07948 2-512 limits assumed)": "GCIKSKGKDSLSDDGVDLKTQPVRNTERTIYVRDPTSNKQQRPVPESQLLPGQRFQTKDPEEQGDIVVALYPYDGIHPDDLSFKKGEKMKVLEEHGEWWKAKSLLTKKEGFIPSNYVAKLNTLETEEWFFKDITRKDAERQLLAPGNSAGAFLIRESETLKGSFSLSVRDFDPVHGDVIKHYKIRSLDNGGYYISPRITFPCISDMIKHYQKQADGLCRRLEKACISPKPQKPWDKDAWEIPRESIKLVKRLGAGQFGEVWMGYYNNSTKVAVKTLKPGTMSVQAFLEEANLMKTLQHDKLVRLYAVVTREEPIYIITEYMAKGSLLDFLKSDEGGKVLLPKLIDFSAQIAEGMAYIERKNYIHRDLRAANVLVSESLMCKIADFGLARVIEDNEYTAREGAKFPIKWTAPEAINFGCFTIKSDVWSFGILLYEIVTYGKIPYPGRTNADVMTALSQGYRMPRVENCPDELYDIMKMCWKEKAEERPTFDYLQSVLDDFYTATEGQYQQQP", "conditions": "LYN; 1000 nM; read-out: Percent Control"}, "[10]": {"target": "panel of 468 diverse kinases (Homo sapiens, UniProt P07949, V804M)", "sequence (P07949 29-1114 V804M limits assumed)": "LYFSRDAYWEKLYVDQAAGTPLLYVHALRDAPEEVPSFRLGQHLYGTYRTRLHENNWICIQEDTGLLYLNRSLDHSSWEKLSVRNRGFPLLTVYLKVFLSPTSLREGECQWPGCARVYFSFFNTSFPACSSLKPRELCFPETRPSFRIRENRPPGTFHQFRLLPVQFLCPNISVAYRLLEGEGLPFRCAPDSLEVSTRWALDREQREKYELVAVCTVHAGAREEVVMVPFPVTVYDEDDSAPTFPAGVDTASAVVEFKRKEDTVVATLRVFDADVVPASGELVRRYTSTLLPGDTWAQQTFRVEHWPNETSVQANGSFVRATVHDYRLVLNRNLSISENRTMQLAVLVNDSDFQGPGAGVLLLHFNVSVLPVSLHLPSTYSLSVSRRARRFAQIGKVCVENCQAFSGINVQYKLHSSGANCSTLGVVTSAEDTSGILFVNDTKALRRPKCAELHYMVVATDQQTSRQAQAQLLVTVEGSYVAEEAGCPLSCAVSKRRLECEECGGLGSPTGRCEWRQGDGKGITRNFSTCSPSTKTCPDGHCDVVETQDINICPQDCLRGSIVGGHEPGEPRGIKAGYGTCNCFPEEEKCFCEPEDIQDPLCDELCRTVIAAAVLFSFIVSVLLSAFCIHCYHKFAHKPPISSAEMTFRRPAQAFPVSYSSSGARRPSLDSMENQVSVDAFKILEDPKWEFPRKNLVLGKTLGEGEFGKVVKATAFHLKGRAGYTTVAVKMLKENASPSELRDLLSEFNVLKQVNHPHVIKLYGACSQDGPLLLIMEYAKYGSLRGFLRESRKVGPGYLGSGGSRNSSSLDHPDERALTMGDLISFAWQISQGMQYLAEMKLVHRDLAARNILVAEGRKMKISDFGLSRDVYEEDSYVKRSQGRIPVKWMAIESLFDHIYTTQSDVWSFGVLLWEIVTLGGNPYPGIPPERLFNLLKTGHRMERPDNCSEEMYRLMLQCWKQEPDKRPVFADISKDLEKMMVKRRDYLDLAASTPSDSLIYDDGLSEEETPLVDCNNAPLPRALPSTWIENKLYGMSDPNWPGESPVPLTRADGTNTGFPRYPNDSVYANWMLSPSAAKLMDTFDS", "conditions": "RET(V804M); 1000 nM; read-out: Percent Control"}, "[11]": {"target": "panel of 468 diverse kinases (Homo sapiens, UniProt P22607)", "sequence (P22607 23-806 limits assumed)": "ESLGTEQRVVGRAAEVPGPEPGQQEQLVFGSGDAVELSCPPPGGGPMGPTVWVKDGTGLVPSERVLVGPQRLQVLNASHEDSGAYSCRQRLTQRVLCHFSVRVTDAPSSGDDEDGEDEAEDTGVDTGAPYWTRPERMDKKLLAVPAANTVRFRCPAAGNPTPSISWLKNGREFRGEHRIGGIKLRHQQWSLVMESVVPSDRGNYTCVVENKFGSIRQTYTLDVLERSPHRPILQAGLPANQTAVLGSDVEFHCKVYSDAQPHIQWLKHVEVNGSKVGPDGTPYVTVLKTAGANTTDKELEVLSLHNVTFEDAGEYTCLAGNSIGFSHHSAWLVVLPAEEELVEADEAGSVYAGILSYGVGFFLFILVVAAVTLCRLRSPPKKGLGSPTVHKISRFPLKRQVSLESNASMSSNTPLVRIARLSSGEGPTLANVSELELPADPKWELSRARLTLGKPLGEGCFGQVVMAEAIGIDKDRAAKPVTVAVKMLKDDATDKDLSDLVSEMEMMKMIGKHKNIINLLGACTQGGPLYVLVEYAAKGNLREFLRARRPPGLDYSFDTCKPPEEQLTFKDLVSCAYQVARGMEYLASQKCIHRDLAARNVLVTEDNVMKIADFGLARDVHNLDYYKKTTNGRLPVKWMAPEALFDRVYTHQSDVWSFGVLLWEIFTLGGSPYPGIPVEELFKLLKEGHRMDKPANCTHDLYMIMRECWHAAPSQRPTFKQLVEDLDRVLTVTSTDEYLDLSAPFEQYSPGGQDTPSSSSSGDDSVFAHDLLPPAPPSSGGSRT", "conditions": "FGFR3; 1000 nM; read-out: Percent Control"}, "[12]": {"target": "panel of 468 diverse kinases (Homo sapiens, UniProt P22694)", "conditions": "PKAC-beta; 1000 nM; read-out: Percent Control"}, "[13]": {"target": "panel of 468 diverse kinases (Homo sapiens, UniProt P36888, D835V)", "conditions": "FLT3(D835V); 1000 nM; read-out: Percent Control"}, "[14]": {"target": "panel of 468 diverse kinases (Homo sapiens, UniProt P42336, I800L)", "conditions": "PIK3CA(I800L); 1000 nM; read-out: Percent Control"}, "[15]": {"target": "panel of 468 diverse kinases (Homo sapiens, UniProt P42345)", "conditions": "MTOR; 1000 nM; read-out: Percent Control"}, "[16]": {"target": "panel of 468 diverse kinases (Homo sapiens, UniProt P48736)", "conditions": "PIK3CG; 1000 nM; read-out: Percent Control"}, "[17]": {"target": "panel of 468 diverse kinases (Homo sapiens, UniProt P50750)", "conditions": "CDK9; 1000 nM; read-out: Percent Control"}, "[18]": {"target": "panel of 468 diverse kinases (Homo sapiens, UniProt Q04771)", "sequence (Q04771 21-509 limits assumed)": "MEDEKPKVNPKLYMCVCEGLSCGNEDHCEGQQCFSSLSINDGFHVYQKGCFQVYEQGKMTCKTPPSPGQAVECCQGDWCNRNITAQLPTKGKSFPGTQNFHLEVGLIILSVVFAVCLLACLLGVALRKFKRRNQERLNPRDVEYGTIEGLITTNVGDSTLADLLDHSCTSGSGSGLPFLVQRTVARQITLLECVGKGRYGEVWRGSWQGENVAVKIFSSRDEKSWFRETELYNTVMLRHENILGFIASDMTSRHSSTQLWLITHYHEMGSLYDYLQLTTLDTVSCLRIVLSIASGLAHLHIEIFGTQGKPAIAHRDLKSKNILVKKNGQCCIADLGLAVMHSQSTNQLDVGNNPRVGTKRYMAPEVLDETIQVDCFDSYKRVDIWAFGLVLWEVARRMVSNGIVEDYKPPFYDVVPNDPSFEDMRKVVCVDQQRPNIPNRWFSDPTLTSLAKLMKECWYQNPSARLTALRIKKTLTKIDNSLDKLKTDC", "conditions": "ACVR1; 1000 nM; read-out: Percent Control"}, "[19]": {"target": "panel of 468 diverse kinases (Homo sapiens, UniProt Q13163)", "conditions": "MEK5; 1000 nM; read-out: Percent Control"}, "[20]": {"target": "panel of 468 diverse kinases (Homo sapiens, UniProt Q13557)", "sequence (Q13557 2-499 limits assumed)": "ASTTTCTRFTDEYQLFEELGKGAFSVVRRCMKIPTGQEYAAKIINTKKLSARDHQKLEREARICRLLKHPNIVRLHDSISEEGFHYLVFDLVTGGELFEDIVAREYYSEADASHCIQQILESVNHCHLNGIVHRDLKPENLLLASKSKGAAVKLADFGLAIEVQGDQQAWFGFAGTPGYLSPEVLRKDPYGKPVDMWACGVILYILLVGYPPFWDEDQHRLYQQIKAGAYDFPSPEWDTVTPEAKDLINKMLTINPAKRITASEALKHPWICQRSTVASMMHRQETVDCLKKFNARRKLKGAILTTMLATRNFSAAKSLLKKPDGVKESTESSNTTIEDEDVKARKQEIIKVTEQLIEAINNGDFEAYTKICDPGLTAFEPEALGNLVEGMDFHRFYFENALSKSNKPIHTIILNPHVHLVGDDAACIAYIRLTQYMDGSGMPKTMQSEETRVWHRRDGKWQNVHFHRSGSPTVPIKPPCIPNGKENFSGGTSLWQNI", "conditions": "CAMK2D; 1000 nM; read-out: Percent Control"}, "[21]": {"target": "panel of 468 diverse kinases (Homo sapiens, UniProt Q15139)", "conditions": "PRKD1; 1000 nM; read-out: Percent Control"}, "[22]": {"target": "panel of 468 diverse kinases (Homo sapiens, UniProt Q16512)", "conditions": "PKN1; 1000 nM; read-out: Percent Control"}, "[23]": {"target": "panel of 468 diverse kinases (Homo sapiens, UniProt Q6XUX3)", "conditions": "RIPK5; 1000 nM; read-out: Percent Control"}, "[24]": {"target": "panel of 468 diverse kinases (Homo sapiens, UniProt Q8NG66)", "conditions": "NEK11; 1000 nM; read-out: Percent Control"}, "[25]": {"target": "panel of 468 diverse kinases (Homo sapiens, UniProt Q8TDC3)", "conditions": "BRSK1; 1000 nM; read-out: Percent Control"}, "[26]": {"target": "panel of 468 diverse kinases (Homo sapiens, UniProt Q8TDR2)", "conditions": "STK35; 1000 nM; read-out: Percent Control"}, "[27]": {"target": "panel of 468 diverse kinases (Homo sapiens, UniProt Q96RR4)", "conditions": "CAMKK2; 1000 nM; read-out: Percent Control"}, "[28]": {"target": "panel of 468 diverse kinases (Homo sapiens, UniProt Q9UBF8)", "sequence (Q9UBF8 2-816 limits assumed)": "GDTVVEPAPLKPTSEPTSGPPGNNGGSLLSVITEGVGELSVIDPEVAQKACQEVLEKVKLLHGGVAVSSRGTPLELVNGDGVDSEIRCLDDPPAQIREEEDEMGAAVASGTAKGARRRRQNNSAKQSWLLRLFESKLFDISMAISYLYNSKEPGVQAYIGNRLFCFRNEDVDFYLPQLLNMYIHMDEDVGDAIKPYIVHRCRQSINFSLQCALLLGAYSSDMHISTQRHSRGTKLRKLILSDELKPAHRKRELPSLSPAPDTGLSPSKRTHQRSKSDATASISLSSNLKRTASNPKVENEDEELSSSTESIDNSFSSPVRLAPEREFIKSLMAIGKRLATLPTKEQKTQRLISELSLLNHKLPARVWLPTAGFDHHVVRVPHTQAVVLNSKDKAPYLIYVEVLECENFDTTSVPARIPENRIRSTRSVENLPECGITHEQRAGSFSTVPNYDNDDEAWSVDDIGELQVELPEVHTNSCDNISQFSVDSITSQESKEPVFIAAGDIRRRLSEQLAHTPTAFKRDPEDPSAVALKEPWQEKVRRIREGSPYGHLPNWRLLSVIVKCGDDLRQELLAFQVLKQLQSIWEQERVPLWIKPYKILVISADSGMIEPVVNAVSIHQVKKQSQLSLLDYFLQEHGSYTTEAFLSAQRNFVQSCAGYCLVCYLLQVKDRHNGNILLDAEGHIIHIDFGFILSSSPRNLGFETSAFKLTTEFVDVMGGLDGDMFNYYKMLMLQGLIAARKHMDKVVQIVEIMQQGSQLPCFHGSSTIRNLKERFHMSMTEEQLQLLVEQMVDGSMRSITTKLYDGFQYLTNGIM", "conditions": "PIK4CB; 1000 nM; read-out: Percent Control"}, "[29]": {"target": "panel of 468 diverse kinases (Homo sapiens, UniProt Q9UEE5)", "conditions": "DRAK1; 1000 nM; read-out: Percent Control"}, "[30]": {"target": "panel of 468 diverse kinases (Homo sapiens, UniProt Q9Y2U5)", "conditions": "MAP3K2; 1000 nM; read-out: Percent Control"}, "[31]": {"target": "panel of 468 diverse kinases (Homo sapiens, UniProt Q9Y616)", "conditions": "IRAK3; 1000 nM; read-out: Percent Control"}},
  "note": "Where two headings read alike, the source gives them in different places.",
  "data": [
    {"smiles": "COc1cc2nc(NC3CC3)nc(NC3CCN(C(C)C)CC3)c2cc1OC", "note": "[Formula IV]", "values": [
      {"measurement": "remaining activity at 1 µM", "setting": "[1]", "result": 74, "unit": "%"},
      {"measurement": "remaining activity at 1 µM", "setting": "[2]", "result": 58, "unit": "%"},
      {"measurement": "remaining activity at 1 µM", "setting": "[3]", "result": 49, "unit": "%"},
      {"measurement": "remaining activity at 1 µM", "setting": "[4]", "result": 33, "unit": "%"},
      {"measurement": "remaining activity at 1 µM", "setting": "[5]", "result": 52, "unit": "%"},
      {"measurement": "remaining activity at 1 µM", "setting": "[6]; ABL1 (F317L)-nonpho sphorylated", "result": 82, "unit": "%"},
      {"measurement": "remaining activity at 1 µM", "setting": "[6]; ABL1(F317L)-phosphorylated", "result": 40, "unit": "%"},
      {"measurement": "remaining activity at 1 µM", "setting": "[7]", "result": 97, "unit": "%"},
      {"measurement": "remaining activity at 1 µM", "setting": "[8]", "result": 100, "unit": "%"},
      {"measurement": "remaining activity at 1 µM", "setting": "[9]", "result": 77, "unit": "%"},
      {"measurement": "remaining activity at 1 µM", "setting": "[10]", "result": 100, "unit": "%"},
      {"measurement": "remaining activity at 1 µM", "setting": "[11]", "result": 100, "unit": "%"},
      {"measurement": "remaining activity at 1 µM", "setting": "[12]", "result": 96, "unit": "%"},
      {"measurement": "remaining activity at 1 µM", "setting": "[13]", "result": 44, "unit": "%"},
      {"measurement": "remaining activity at 1 µM", "setting": "[14]", "result": 94, "unit": "%"},
      {"measurement": "remaining activity at 1 µM", "setting": "[15]", "result": 87, "unit": "%"},
      {"measurement": "remaining activity at 1 µM", "setting": "[16]", "result": 83, "unit": "%"},
      {"measurement": "remaining activity at 1 µM", "setting": "[17]", "result": 100, "unit": "%"},
      {"measurement": "remaining activity at 1 µM", "setting": "[18]", "result": 100, "unit": "%"},
      {"measurement": "remaining activity at 1 µM", "setting": "[19]", "result": 60, "unit": "%"},
      {"measurement": "remaining activity at 1 µM", "setting": "[20]", "result": 89, "unit": "%"},
      {"measurement": "remaining activity at 1 µM", "setting": "[21]", "result": 100, "unit": "%"},
      {"measurement": "remaining activity at 1 µM", "setting": "[22]", "result": 99, "unit": "%"},
      {"measurement": "remaining activity at 1 µM", "setting": "[23]", "result": 54, "unit": "%"},
      {"measurement": "remaining activity at 1 µM", "setting": "[24]", "result": 42, "unit": "%"},
      {"measurement": "remaining activity at 1 µM", "setting": "[25]", "result": 92, "unit": "%"},
      {"measurement": "remaining activity at 1 µM", "setting": "[26]", "result": 94, "unit": "%"},
      {"measurement": "remaining activity at 1 µM", "setting": "[27]", "result": 100, "unit": "%"},
      {"measurement": "remaining activity at 1 µM", "setting": "[28]", "result": 100, "unit": "%"},
      {"measurement": "remaining activity at 1 µM", "setting": "[29]", "result": 96, "unit": "%"},
      {"measurement": "remaining activity at 1 µM", "setting": "[30]", "result": 65, "unit": "%"},
      {"measurement": "remaining activity at 1 µM", "setting": "[31]", "result": 99, "unit": "%"}
    ]}
  ]
}
